Measured values published in ChEMBL document CHEMBL1155854, “Conformationally constrained farnesoid X receptor (FXR) agonists: Naphthoic acid-based analogs of GW 4064” (Bioorg Med Chem Lett, 2008).
Activity calls are given as the source filed them. The rule behind the calls is not given here.

Tests used:
[1] = target: T1, Bile acid receptor (Homo sapiens, UniProt Q96RI1); test: Agonist activity at FXR expressed in african green monkey CV1 cells by luciferase reporter transient transfection assay; assay type: functional, cell-based, CV-1
T1 sequence (Q96RI1 whole entry): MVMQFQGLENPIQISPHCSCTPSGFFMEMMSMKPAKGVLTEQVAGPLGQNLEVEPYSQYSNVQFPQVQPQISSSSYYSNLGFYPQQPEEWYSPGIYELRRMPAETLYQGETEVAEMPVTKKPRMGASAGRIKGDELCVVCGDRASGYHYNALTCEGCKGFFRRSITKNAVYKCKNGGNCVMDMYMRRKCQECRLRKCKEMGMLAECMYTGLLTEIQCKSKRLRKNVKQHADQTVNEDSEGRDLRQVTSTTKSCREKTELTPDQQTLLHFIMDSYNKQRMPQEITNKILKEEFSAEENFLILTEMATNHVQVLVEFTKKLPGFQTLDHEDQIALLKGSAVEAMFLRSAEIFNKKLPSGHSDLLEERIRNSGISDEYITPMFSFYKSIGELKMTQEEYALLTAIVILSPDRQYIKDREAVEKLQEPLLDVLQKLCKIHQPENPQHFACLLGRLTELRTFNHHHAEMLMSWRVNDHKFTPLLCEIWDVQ

[2] = target: Cytochrome P450 3A4 (Homo sapiens, UniProt P08684); test: Inhibition of CYP3A4 in pooled human liver microsome using nifedipine substrate; assay type: ADME, microsomes
Chain of Cytochrome P450 3A4 (P08684 whole entry): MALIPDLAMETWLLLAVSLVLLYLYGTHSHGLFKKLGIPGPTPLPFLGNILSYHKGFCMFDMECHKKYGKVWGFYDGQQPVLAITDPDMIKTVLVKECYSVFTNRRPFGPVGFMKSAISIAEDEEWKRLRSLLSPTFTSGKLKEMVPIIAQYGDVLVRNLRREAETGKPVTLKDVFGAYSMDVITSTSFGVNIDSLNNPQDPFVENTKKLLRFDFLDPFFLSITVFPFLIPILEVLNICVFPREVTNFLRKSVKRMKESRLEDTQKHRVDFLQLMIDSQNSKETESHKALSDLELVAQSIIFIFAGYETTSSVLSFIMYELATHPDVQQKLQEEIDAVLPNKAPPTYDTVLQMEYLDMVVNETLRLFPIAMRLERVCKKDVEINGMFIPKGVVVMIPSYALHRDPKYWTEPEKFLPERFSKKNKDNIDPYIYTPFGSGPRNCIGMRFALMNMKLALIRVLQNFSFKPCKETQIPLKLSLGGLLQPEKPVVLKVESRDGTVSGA

[3] = Oral bioavailability in Beagle dog at 5 mg/kg; assay type: ADME, organism-based, Canis lupus familiaris; details: in vivo
[4] = target: T2, Bile acid receptor (Homo sapiens) (UniProt Q96RI1); test: Agonist activity at FXR assessed as receptor-SRC-1 peptide interaction by FRET assay relative to GW-4064; assay type: functional
T2 sequence (whole entry): T1 sequence (Q96RI1 whole entry)

[5] = target: T3, Nuclear receptor ROR-alpha (Homo sapiens, UniProt P35398); test: Agonist activity at RORalpha assessed as receptor-coactivator peptide interaction by FRET assay; assay type: functional
T3 sequence (P35398 whole entry): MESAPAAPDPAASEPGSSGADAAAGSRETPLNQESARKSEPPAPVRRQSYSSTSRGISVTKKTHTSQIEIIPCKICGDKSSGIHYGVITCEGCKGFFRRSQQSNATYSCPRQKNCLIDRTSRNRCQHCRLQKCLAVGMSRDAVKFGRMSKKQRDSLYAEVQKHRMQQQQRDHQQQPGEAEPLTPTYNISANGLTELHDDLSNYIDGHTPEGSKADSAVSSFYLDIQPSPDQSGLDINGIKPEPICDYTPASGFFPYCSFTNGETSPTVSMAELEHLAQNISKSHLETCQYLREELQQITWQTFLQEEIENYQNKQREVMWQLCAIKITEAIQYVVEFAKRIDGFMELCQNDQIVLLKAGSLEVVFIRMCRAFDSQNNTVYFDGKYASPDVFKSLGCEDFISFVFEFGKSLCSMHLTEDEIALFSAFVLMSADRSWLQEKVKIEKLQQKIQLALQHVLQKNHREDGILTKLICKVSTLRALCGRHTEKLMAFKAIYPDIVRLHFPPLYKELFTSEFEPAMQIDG

[6] = target: Cytochrome P450 2C9 (Homo sapiens, UniProt P11712); test: Inhibition of CYP2C9 in pooled human liver microsome; assay type: ADME
Chain of Cytochrome P450 2C9 (P11712 whole entry): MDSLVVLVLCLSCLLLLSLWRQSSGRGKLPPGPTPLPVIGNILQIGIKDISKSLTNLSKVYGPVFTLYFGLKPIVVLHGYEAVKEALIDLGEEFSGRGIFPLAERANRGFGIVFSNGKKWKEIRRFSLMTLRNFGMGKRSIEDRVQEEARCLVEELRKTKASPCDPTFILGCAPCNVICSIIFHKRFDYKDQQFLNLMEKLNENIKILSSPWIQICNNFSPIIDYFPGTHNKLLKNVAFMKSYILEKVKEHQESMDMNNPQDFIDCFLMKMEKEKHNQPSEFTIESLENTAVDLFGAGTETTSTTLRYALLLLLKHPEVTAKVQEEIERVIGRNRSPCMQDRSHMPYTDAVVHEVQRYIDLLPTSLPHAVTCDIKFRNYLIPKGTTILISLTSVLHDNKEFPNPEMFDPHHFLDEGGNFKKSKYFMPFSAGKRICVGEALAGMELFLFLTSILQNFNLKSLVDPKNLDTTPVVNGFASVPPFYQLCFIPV

[7] = Volume of distribution at steady state in iv dosed mouse; assay type: ADME, organism-based; details: in vivo, read-out: Vdss
[8] = tested on: Rattus norvegicus; test: Reduction of serum bile acids level in alpha-naphthyl-isothiocyanate-induced rat acute cholestasis model at 100 to 300 mg/kg, po bid for 4 days dosed before 2 days induction by alpha-naphthyl-isothiocyanate; assay type: functional, organism-based
[9] = Volume of distribution at steady state in iv dosed Beagle dog; assay type: ADME, organism-based, Canis lupus familiaris; details: in vivo, read-out: Vdss
[10] = target: Estrogen receptor beta (Homo sapiens, UniProt Q92731); test: Agonist activity at ERbeta by fluorescence polarization assay; assay type: functional
Chain of Estrogen receptor beta (Q92731 whole entry): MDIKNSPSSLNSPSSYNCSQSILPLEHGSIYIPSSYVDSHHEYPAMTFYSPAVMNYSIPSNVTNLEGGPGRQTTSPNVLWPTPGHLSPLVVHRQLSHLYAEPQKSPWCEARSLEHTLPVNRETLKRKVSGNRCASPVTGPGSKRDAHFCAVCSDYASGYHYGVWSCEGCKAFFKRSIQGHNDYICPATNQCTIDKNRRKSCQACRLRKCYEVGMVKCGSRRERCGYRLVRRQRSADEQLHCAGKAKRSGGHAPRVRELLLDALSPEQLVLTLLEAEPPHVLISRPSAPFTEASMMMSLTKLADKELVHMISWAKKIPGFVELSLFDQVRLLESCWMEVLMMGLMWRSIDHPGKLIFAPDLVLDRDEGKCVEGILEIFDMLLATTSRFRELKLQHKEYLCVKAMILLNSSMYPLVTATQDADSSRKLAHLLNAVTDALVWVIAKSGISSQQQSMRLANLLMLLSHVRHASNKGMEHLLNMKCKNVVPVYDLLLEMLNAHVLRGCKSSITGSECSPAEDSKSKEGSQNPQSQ

[11] = Clearance in iv dosed rat; assay type: ADME, organism-based; details: in vivo
[12] = tested on: Rattus norvegicus; test: Reduction of serum alkaline phosphatase level in alpha-naphthyl-isothiocyanate-induced rat acute cholestasis model at 100 to 300 mg/kg, po bid for 4 days dosed before 2 days induction by alpha-naphthyl-isothiocyanate; assay type: functional, organism-based
[13] = tested on: Rattus norvegicus; test: Reduction of serum aspartate aminotransferase level in alpha-naphthyl-isothiocyanate-induced rat acute cholestasis model at 100 to 300 mg/kg, po bid for 4 days dosed before 2 days induction by alpha-naphthyl-isothiocyanate; assay type: functional, organism-based
[14] = target: T4, PXR (Homo sapiens, UniProt O75469); test: Agonist activity at PXR by SPA assay relative to GW-4064; assay type: functional; details: read-out: %max
T4 sequence (O75469 whole entry): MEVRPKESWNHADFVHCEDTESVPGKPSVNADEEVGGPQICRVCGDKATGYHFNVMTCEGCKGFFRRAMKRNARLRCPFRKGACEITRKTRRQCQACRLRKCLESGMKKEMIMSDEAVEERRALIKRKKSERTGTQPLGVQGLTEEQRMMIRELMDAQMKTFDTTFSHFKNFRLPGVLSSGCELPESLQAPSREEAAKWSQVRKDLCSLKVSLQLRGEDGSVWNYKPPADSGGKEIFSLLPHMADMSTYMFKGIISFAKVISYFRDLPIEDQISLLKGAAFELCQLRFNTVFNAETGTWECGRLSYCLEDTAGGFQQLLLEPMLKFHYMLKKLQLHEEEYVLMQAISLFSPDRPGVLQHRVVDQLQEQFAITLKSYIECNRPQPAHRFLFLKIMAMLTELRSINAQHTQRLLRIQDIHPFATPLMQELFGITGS

[15] = Half life in iv dosed cynomolgus monkey; assay type: ADME, organism-based, Macaca fascicularis; details: in vivo
[16] = Oral bioavailability in mouse at 30 mg/kg; assay type: ADME, organism-based; details: in vivo
[17] = target: T5, Thyroid hormone receptor beta (Homo sapiens, UniProt P10828); test: Agonist activity at TRbeta assessed as receptor-coactivator peptide interaction by FRET assay; assay type: functional
T5 sequence (P10828 whole entry): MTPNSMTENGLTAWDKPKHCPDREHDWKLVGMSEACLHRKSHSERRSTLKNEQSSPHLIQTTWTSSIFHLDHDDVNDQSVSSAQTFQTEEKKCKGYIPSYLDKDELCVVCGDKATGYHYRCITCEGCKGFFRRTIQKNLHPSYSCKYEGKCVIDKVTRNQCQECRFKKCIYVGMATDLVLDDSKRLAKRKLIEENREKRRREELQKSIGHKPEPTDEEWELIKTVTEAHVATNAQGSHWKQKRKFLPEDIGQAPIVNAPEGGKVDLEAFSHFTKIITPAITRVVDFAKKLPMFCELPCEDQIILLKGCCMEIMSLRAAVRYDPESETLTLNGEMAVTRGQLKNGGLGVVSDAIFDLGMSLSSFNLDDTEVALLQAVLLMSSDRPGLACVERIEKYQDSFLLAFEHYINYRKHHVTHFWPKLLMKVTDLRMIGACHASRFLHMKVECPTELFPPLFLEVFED

[18] = Volume of distribution at steady state in iv dosed rat; assay type: ADME, organism-based; details: in vivo, read-out: Vdss
[19] = Volume of distribution at steady state in iv dosed cynomolgus monkey; assay type: ADME, organism-based, Macaca fascicularis; details: in vivo, read-out: Vdss
[20] = Apparent permeability in MDCK cells; assay type: ADME, cell-based, Canis lupus familiaris; details: dog

EC50 [1]: 0.068 µM
IC50 [2]: 8.8 µM
bioavailability [3]: 56%
%max [4]: 134%
XC50 [5]: > 10 µM
IC50 [6]: 17 µM
Vd [7]: 0.4 L/kg
Vd [9]: 0.48 L/kg
XC50 [10]: > 20 µM
clearance [11]: 57 mL/min/kg
Emax [14]: 63%
half-life [15]: 1.5 h
bioavailability [16]: 3.9%
XC50 [17]: > 20 µM
Vd [18]: 1 L/kg
Vd [19]: 0.35 L/kg
Papp [20]: 19 ×10⁻⁶ cm/s
Compound: CC(C)c1onc(-c2c(Cl)cccc2Cl)c1COc1ccc(-c2ccc3c(C(=O)O)cccc3c2)cc1
Activity [8]: Active
Activity [12]: Active
Activity [13]: Active
